Experimental findings from PubChem BioAssay (NCI) are described below.

Several values for one entry are separate records, joined by “and”; a condition that tells them apart may be missing. Equal entries are not always repeated.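 Tested at 5 concentrations; 48 h exposure; 96-well plates; endpoints linearly interpolated, else capped at highest concentration. Here, GI50 denotes the concentration required for 50% inhibition of growth. TGI is the concentration that stops growth completely.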

Test systems include CCRF-CEM leukemia; HOP-92 NSCLC; RPMI-8226 leukemia; SNB-75 CNS; SR leukemia; T-47D breast; OVCAR-5 ovarian; SF-539 CNS; SK-MEL-5 melanoma; HT29 colon.
Test in all cases: NCI tumour cell line growth inhibition, 48 h

As for `CC(C)(C)OC(=O)CC(NC(=O)OCc1ccccc1)NC(=O)OC(C)(C)C` (configuration not stated), the GI50 with CCRF-CEM leukemia is 35.4 µg/mL; in the test on HOP-92 NSCLC, 69.2 µg/mL; in the test on RPMI-8226 leukemia, 32.8 µg/mL; in the test on SNB-75 CNS, 20.8 µg/mL; in the test with SR leukemia it was 27.8 µg/mL; with T-47D breast it was 26 µg/mL. In the test with SR leukemia, this compound came in with a TGI of 67.7 µg/mL.

With `C/C=C(/CCC1NCCc2c1[nH]c1ccccc21)[Si](C)(C)C` (configuration not stated), the TGI was > 100 µM and 11.5 µM in the test on CCRF-CEM leukemia; 90.1 µM and 11.9 µM in the test with HOP-92 NSCLC; > 100 µM and 14.6 µM in the test with OVCAR-5 ovarian; > 100 µM and 13.1 µM in the test with SF-539 CNS; > 100 µM and 11.8 µM in the test with SK-MEL-5 melanoma; > 100 µM and 19.9 µM with SNB-75 CNS. For the same compound, in the test with HOP-92 NSCLC, the GI50 is 27 µM and 2.9 µM.

As to `CC(=O)Nc1ccc2c(c1)C(=O)c1ccccc1-2`, the TGI in the test on CCRF-CEM leukemia, with HT29 colon, in the test on RPMI-8226 leukemia, with SF-539 CNS, in the test on SNB-75 CNS and in the test with SR leukemia was over 100 µM each time.

As for `COC(=O)C1=C(O)C(C(=O)OC)[C@@]2(O)[C@@H](C(=O)OC)[C@H](C)C[C@@H]1[C@@H]2C(=O)OC` (some centres not stated), the TGI was over 100 µM in the test on CCRF-CEM leukemia; 71.3 µM in the test on HT29 colon; 98.9 µM in the test with OVCAR-5 ovarian; 71.5 µM in the test with RPMI-8226 leukemia; 34.1 µM with SF-539 CNS; 78.1 µM in the test with SNB-75 CNS. For the same compound, the TGI in the test with SR leukemia and in the test with T-47D breast was over 100 µM each time.

As to `CC(C)(CCCCC(C)(C)NC1=NCCO1)NC1=NCCO1`, the TGI with CCRF-CEM leukemia, in the test with HT29 colon, in the test on OVCAR-5 ovarian, in the test with RPMI-8226 leukemia, in the test with SF-539 CNS and with SK-MEL-5 melanoma was over 10 µM each time. Besides, the TGI with SNB-75 CNS, in the test on SR leukemia and in the test on T-47D breast was over 10 µM in each case.

Turning to `CCOC(=O)c1c(Cl)c2c(n1Cc1ccccc1)-c1oncc1CCC2`, the GI50 is 2.21 µM in the test on CCRF-CEM leukemia; 2.95 µM with HT29 colon; over 100 µM with OVCAR-5 ovarian; 3.27 µM with RPMI-8226 leukemia; 3.53 µM in the test on SK-MEL-5 melanoma; 1.8 µM with SR leukemia. The GI50 in the test with T-47D breast is 2.69 µM. Further, the TGI is over 100 µM in the test on CCRF-CEM leukemia; 8.52 µM with HT29 colon; over 100 µM with OVCAR-5 ovarian; over 100 µM in the test on RPMI-8226 leukemia; over 100 µM in the test with SK-MEL-5 melanoma; 8.24 µM in the test with SR leukemia. The TGI in the test with T-47D breast was over 100 µM.

As to `COC(=O)C(C)NP(=O)(OCc1cccc(Cn2cnc3c(N)ncnc32)c1)Oc1ccccc1` (configuration not stated), the GI50 in the test on CCRF-CEM leukemia was 50.5 µM; with HOP-92 NSCLC, 54.1 µM; with HT29 colon it was over 100 µM; in the test with OVCAR-5 ovarian, over 100 µM; in the test on RPMI-8226 leukemia it was over 100 µM; in the test with SF-539 CNS, over 100 µM. The GI50 with SK-MEL-5 melanoma was 54.1 µM; in the test on SNB-75 CNS, over 100 µM; in the test with SR leukemia, 55.4 µM. Moreover, the TGI with CCRF-CEM leukemia, with HOP-92 NSCLC, with HT29 colon, in the test on OVCAR-5 ovarian, in the test on RPMI-8226 leukemia and in the test on SF-539 CNS was over 100 µM each time. Moreover, the TGI with SK-MEL-5 melanoma, in the test on SNB-75 CNS and in the test on SR leukemia was over 100 µM each time.

`O=[N+]([O-])c1ccc(N/N=C\c2cc(Br)ccc2O)nc1`: the GI50 with CCRF-CEM leukemia was 0.314 µM; in the test on HOP-92 NSCLC it was 1.62 µM; in the test on HT29 colon it was 4.27 µM; in the test with OVCAR-5 ovarian, 5.51 µM; in the test on RPMI-8226 leukemia, 0.753 µM; in the test with SF-539 CNS, 0.918 µM. Further, the GI50 with SK-MEL-5 melanoma was 1.32 µM; in the test with SNB-75 CNS it was 1.32 µM; in the test on SR leukemia, 0.463 µM; in the test with T-47D breast it was 2.07 µM. In addition, the TGI is over 100 µM in the test on CCRF-CEM leukemia; 6.77 µM in the test with HOP-92 NSCLC; over 100 µM in the test with HT29 colon; over 100 µM in the test with OVCAR-5 ovarian; over 100 µM in the test on RPMI-8226 leukemia; 4.16 µM with SF-539 CNS. Further, the TGI in the test with SK-MEL-5 melanoma was 10.9 µM; in the test on SNB-75 CNS it was 3.85 µM; with SR leukemia, over 100 µM; with T-47D breast, over 100 µM.

Consider `NS(=O)(=O)c1c(O)c2ccccc2oc1=O`, for which the TGI in the test with CCRF-CEM leukemia, in the test with HOP-92 NSCLC, in the test on HT29 colon, in the test with OVCAR-5 ovarian, in the test on RPMI-8226 leukemia and in the test on SF-539 CNS was over 100 µM throughout. In addition, the TGI in the test on SK-MEL-5 melanoma, with SNB-75 CNS, with SR leukemia and with T-47D breast was over 100 µM each time.

In the case of `NCCCCNOCCCN`, the TGI with CCRF-CEM leukemia, in the test on HOP-92 NSCLC, in the test on HT29 colon, in the test with OVCAR-5 ovarian, in the test on RPMI-8226 leukemia and in the test on SF-539 CNS was over 100 µM throughout. Moreover, the TGI with SK-MEL-5 melanoma, in the test on SNB-75 CNS, in the test on SR leukemia and in the test with T-47D breast was over 100 µM each time.

Take `O=S1(=O)C(=C(c2ccccc2)c2ccccc2)S(=O)(=O)c2ccccc21`: the TGI was over 100 µM in the test on CCRF-CEM leukemia; 50.8 µM with HOP-92 NSCLC; over 100 µM in the test with HT29 colon; over 100 µM in the test with OVCAR-5 ovarian; over 100 µM in the test on RPMI-8226 leukemia; 73.3 µM in the test with SF-539 CNS. In addition, the results for the TGI in the test with SK-MEL-5 melanoma and in the test with SNB-75 CNS were over 100 µM and 44.4 µM, respectively.
